# Laboratory results published in ChEMBL document CHEMBL3885881, “DrugMatrix”.
# Species on record: Rattus norvegicus
# Test: DrugMatrix - Regimen: Daily Repeat
# Format: toxicity, organism-based, Sprague-Dawley
# Design: regimen Daily Repeat, gender Male, age 6-8 weeks
# Settings: in vivo, po, route oral GAVAGE; for BASOPHIL / EOSINOPHIL / ERYTHROCYTE COUNT / HEMATOCRIT / HEMOGLOBIN / LEUKOCYTE COUNT / LYMPHOCYTE / MEAN CORPUSCULAR HEMOGLOBIN / MEAN CORPUSCULAR HEMOGLOBIN CONCENTRATION / MEAN CORPUSCULAR VOLUME / MONOCYTE / NEUTROPHIL / PLATELET COUNT: tissue Blood; for ALANINE AMINOTRANSFERASE / ALBUMIN / ALKALINE PHOSPHATASE / ASPARTATE AMINOTRANSFERASE / BLOOD UREA NITROGEN / CARBON DIOXIDE / CHLORIDE / CHOLESTEROL / CREATINE PHOSPHOKINASE / CREATININE / GLUCOSE / LACTATE DEHYDROGENASE / LIPASE / PHOSPHORUS / POTASSIUM / SODIUM / TOTAL BILIRUBIN / TOTAL PROTEIN / URIC ACID: tissue Plasma
# [1] = 38 mg/kg, 72 h, dose level Low, time 3 day, vehicle 100 % WATER
# [2] = 38 mg/kg, 120 h, dose level Low, time 5 day, vehicle 100 % WATER
# [3] = 0 mg/kg, 72 h, dose level Control, time 3 day, vehicle .5 % CMC
# [4] = 0 mg/kg, 120 h, dose level Control, time 5 day, vehicle .5 % CMC
# [5] = 60 mg/kg, 72 h, dose level Low, time 3 day, vehicle .5 % CMC
# [6] = 60 mg/kg, 120 h, dose level Low, time 5 day, vehicle .5 % CMC
structure (smiles),measurement,setting,value
O=C(O)C1CC1 [CYCLOPROPANE CARBOXYLIC ACID],BASOPHIL,[1],0%
same,EOSINOPHIL,[1],0.67%
same,ERYTHROCYTE COUNT,[1],7.06 x10E6/uL
same,HEMATOCRIT,[1],43.67%
same,HEMOGLOBIN,[1],14.6 G/DL
same,LEUKOCYTE COUNT,[1],8.63 x10E3/uL
same,LYMPHOCYTE,[1],83.67%
same,MEAN CORPUSCULAR HEMOGLOBIN,[1],20.67 pg
same,MEAN CORPUSCULAR HEMOGLOBIN CONCENTRATION,[1],33.47 G/DL
same,MEAN CORPUSCULAR VOLUME,[1],61.77 fL
same,MONOCYTE,[1],2.33%
same,NEUTROPHIL,[1],13.33%
same,PLATELET COUNT,[1],1012 x10E3/uL
same,ALANINE AMINOTRANSFERASE,[1],44.67 u/L
same,ALBUMIN,[1],4.37 G/DL
same,ALKALINE PHOSPHATASE,[1],346.67 u/L
same,ASPARTATE AMINOTRANSFERASE,[1],72.33 u/L
same,BLOOD UREA NITROGEN,[1],15 mg/dL
same,CARBON DIOXIDE,[1],23 mmol/L
same,CHLORIDE,[1],103.67 MEQ/L
same,CHOLESTEROL,[1],65.67 mg/dL
same,CREATINE PHOSPHOKINASE,[1],241.33 u/L
same,CREATININE,[1],0.3 mg/dL
same,GLUCOSE,[1],151 mg/dL
same,LACTATE DEHYDROGENASE,[1],152.33 u/L
same,LIPASE,[1],9 u/L
same,PHOSPHORUS,[1],9.83 mg/dL
same,POTASSIUM,[1],5.7 MEQ/L
same,SODIUM,[1],145.67 MEQ/L
same,TOTAL BILIRUBIN,[1],0.1 mg/dL
same,TOTAL PROTEIN,[1],6.03 G/DL
same,URIC ACID,[1],1.1 mg/dL
same,BASOPHIL,[2],0.33%
same,EOSINOPHIL,[2],1%
same,ERYTHROCYTE COUNT,[2],7.12 x10E6/uL
same,HEMATOCRIT,[2],44.63%
same,HEMOGLOBIN,[2],14.4 G/DL
same,LEUKOCYTE COUNT,[2],10.9 x10E3/uL
same,LYMPHOCYTE,[2],85%
same,MEAN CORPUSCULAR HEMOGLOBIN,[2],20.2 pg
same,MEAN CORPUSCULAR HEMOGLOBIN CONCENTRATION,[2],32.27 G/DL
same,MEAN CORPUSCULAR VOLUME,[2],62.67 fL
same,MONOCYTE,[2],2.33%
same,NEUTROPHIL,[2],12.33%
same,PLATELET COUNT,[2],970.67 x10E3/uL
same,ALANINE AMINOTRANSFERASE,[2],47.33 u/L
same,ALBUMIN,[2],4.6 G/DL
same,ALKALINE PHOSPHATASE,[2],373.67 u/L
same,ASPARTATE AMINOTRANSFERASE,[2],86 u/L
same,BLOOD UREA NITROGEN,[2],17.33 mg/dL
same,CARBON DIOXIDE,[2],20.67 mmol/L
same,CHLORIDE,[2],99.33 MEQ/L
same,CHOLESTEROL,[2],73.67 mg/dL
same,CREATINE PHOSPHOKINASE,[2],418 u/L
same,CREATININE,[2],0.3 mg/dL
same,GLUCOSE,[2],133.33 mg/dL
same,LACTATE DEHYDROGENASE,[2],454 u/L
same,LIPASE,[2],9 u/L
same,PHOSPHORUS,[2],10.13 mg/dL
same,POTASSIUM,[2],5.37 MEQ/L
same,SODIUM,[2],143.33 MEQ/L
same,TOTAL BILIRUBIN,[2],0.1 mg/dL
same,TOTAL PROTEIN,[2],6.53 G/DL
same,URIC ACID,[2],1.03 mg/dL
CC(C)Cc1ccc([C@H](C)C(=O)O)cc1 [DEXIBUPROFEN],BASOPHIL,[3],1.52%
same,EOSINOPHIL,[3],0.98%
same,ERYTHROCYTE COUNT,[3],6.96 x10E6/uL
same,HEMATOCRIT,[3],44.65%
same,HEMOGLOBIN,[3],13.62 G/DL
same,LEUKOCYTE COUNT,[3],9.83 x10E3/uL
same,LYMPHOCYTE,[3],76.48%
same,MEAN CORPUSCULAR HEMOGLOBIN,[3],19.57 pg
same,MEAN CORPUSCULAR HEMOGLOBIN CONCENTRATION,[3],30.47 G/DL
same,MONOCYTE,[3],2.13%
same,NEUTROPHIL,[3],18.6%
same,PLATELET COUNT,[3],1217.17 x10E3/uL
same,ALANINE AMINOTRANSFERASE,[3],41 u/L
same,ALBUMIN,[3],3.77 G/DL
same,ALKALINE PHOSPHATASE,[3],411.83 u/L
same,ASPARTATE AMINOTRANSFERASE,[3],62.83 u/L
same,BLOOD UREA NITROGEN,[3],15.17 mg/dL
same,CHLORIDE,[3],104.33 MEQ/L
same,CHOLESTEROL,[3],71.17 mg/dL
same,CREATINE PHOSPHOKINASE,[3],123.5 u/L
same,CREATININE,[3],0.55 mg/dL
same,GLUCOSE,[3],182.67 mg/dL
same,PHOSPHORUS,[3],11.23 mg/dL
same,POTASSIUM,[3],7.03 MEQ/L
same,SODIUM,[3],148 MEQ/L
same,TOTAL BILIRUBIN,[3],0.57 mg/dL
same,TOTAL PROTEIN,[3],6.85 G/DL
same,BASOPHIL,[4],1.35%
same,EOSINOPHIL,[4],0.43%
same,ERYTHROCYTE COUNT,[4],6.96 x10E6/uL
same,HEMATOCRIT,[4],44.35%
same,HEMOGLOBIN,[4],13.98 G/DL
same,LEUKOCYTE COUNT,[4],9.45 x10E3/uL
same,LYMPHOCYTE,[4],80.83%
same,MEAN CORPUSCULAR HEMOGLOBIN,[4],20.1 pg
same,MEAN CORPUSCULAR HEMOGLOBIN CONCENTRATION,[4],31.52 G/DL
same,MONOCYTE,[4],2.37%
same,NEUTROPHIL,[4],14.05%
same,PLATELET COUNT,[4],1298 x10E3/uL
same,ALANINE AMINOTRANSFERASE,[4],42.17 u/L
same,ALBUMIN,[4],3.77 G/DL
same,ALKALINE PHOSPHATASE,[4],419 u/L
same,ASPARTATE AMINOTRANSFERASE,[4],66.67 u/L
same,BLOOD UREA NITROGEN,[4],16.67 mg/dL
same,CHLORIDE,[4],103.17 MEQ/L
same,CHOLESTEROL,[4],66.33 mg/dL
same,CREATINE PHOSPHOKINASE,[4],148.33 u/L
same,CREATININE,[4],0.58 mg/dL
same,GLUCOSE,[4],196.83 mg/dL
same,PHOSPHORUS,[4],11.8 mg/dL
same,POTASSIUM,[4],6.47 MEQ/L
same,SODIUM,[4],148.33 MEQ/L
same,TOTAL BILIRUBIN,[4],0.53 mg/dL
same,TOTAL PROTEIN,[4],6.77 G/DL
same,BASOPHIL,[5],1.63%
same,EOSINOPHIL,[5],0.33%
same,ERYTHROCYTE COUNT,[5],7.19 x10E6/uL
same,HEMATOCRIT,[5],45.6%
same,HEMOGLOBIN,[5],14.37 G/DL
same,LEUKOCYTE COUNT,[5],11 x10E3/uL
same,LYMPHOCYTE,[5],73.1%
same,MEAN CORPUSCULAR HEMOGLOBIN,[5],19.97 pg
same,MEAN CORPUSCULAR HEMOGLOBIN CONCENTRATION,[5],31.47 G/DL
same,MONOCYTE,[5],2.23%
same,NEUTROPHIL,[5],22.3%
same,PLATELET COUNT,[5],1212.33 x10E3/uL
same,ALANINE AMINOTRANSFERASE,[5],40.33 u/L
same,ALBUMIN,[5],3.57 G/DL
same,ALKALINE PHOSPHATASE,[5],328 u/L
same,BLOOD UREA NITROGEN,[5],13.33 mg/dL
same,CHLORIDE,[5],104 MEQ/L
same,CHOLESTEROL,[5],71 mg/dL
same,CREATINE PHOSPHOKINASE,[5],116 u/L
same,CREATININE,[5],0.6 mg/dL
same,GLUCOSE,[5],170.33 mg/dL
same,PHOSPHORUS,[5],11.63 mg/dL
same,POTASSIUM,[5],6.3 MEQ/L
same,SODIUM,[5],150 MEQ/L
same,TOTAL BILIRUBIN,[5],0.37 mg/dL
same,BASOPHIL,[6],1.23%
same,EOSINOPHIL,[6],0.3%
same,ERYTHROCYTE COUNT,[6],6.82 x10E6/uL
same,HEMATOCRIT,[6],42.17%
same,HEMOGLOBIN,[6],13.37 G/DL
same,LEUKOCYTE COUNT,[6],13 x10E3/uL
same,LYMPHOCYTE,[6],76.73%
same,MEAN CORPUSCULAR HEMOGLOBIN,[6],19.6 pg
same,MEAN CORPUSCULAR HEMOGLOBIN CONCENTRATION,[6],31.67 G/DL
same,MONOCYTE,[6],2.2%
same,NEUTROPHIL,[6],18.83%
same,PLATELET COUNT,[6],1398.33 x10E3/uL
same,ALANINE AMINOTRANSFERASE,[6],34 u/L
same,ALBUMIN,[6],3.5 G/DL
same,ALKALINE PHOSPHATASE,[6],320.33 u/L
same,ASPARTATE AMINOTRANSFERASE,[6],59.67 u/L
same,BLOOD UREA NITROGEN,[6],15.67 mg/dL
same,CHLORIDE,[6],104.67 MEQ/L
same,CHOLESTEROL,[6],70.33 mg/dL
same,CREATINE PHOSPHOKINASE,[6],96 u/L
same,CREATININE,[6],0.53 mg/dL
same,GLUCOSE,[6],186.33 mg/dL
same,PHOSPHORUS,[6],12.03 mg/dL
same,POTASSIUM,[6],6.2 MEQ/L
same,SODIUM,[6],149.33 MEQ/L
same,TOTAL BILIRUBIN,[6],0.3 mg/dL
same,TOTAL PROTEIN,[6],6.27 G/DL
